Experimental data reported in patent US12649754B2, “Prodrugs of 2-(3,5-dichloro-1-methyl-indazol-4-yl)-1-[(1S,3R)-3-(hydroxymethyl)-5-(1-hydroxy-1-methyl-ethyl)-1-methyl-3,4-dihydro-1H-isoquinolin-2-yl]ethanone” (UCB Biopharma SRL, priority 2020, dated 2026).
≈ marks a conversion by molar mass, not a printed value. Where two headings read alike, the source gives them in different places.

What was measured:
[1] = Solubility by shake flask method (24 h, HPLC); format: physicochemical; conditions: n=3 mean; for solubility at 24 h: thermodynamic from solid, read-out: Solubility Measurements (mean value) (24 h)
Description: The solubility of compounds of formula (Ia) obtained according to Example 2.12. and compounds of formula (II-A), (II-Ax) and (II-B) obtained respectively according to Examples 3.2. and 4.2., was determined in different media while using the shake flask method. An excess of solids, for (II-Ax) and (II-B) equivalent to a concentration of compound of formula (I) of 5 mg/mL, and for (II-A) equivalent to a concentration of compound of formula (I) of 1 mg/mL was suspended in 5 mL of buffer/biorelevant media as specifically described in Table 1 and incubated in a sealed glass vial (10 mL) for 24 h at room temperature or 37° C. (as indicated below) in a climatic chamber equipped with a rotary mixer. The 24 h time point was assumed to have reached solubility, at which time the suspension was filtered through a 0.45-μm ultra free filter (Merck Millipore) and the drug content was determined by HPLC. The solubility of compounds (Ia), (II-A), (II-Ax) and (II-B) was determined in triplicate (n=3) and mean value calculated.
The media tested are respectively water, phosphate buffer, FasSGF, FASSIF-V2 and FeSSIF-V2. FasSG is fasted condition gastric fluid. FasSGF is prepared at pH 1.6 and contains 0.08 mM Taurocholate, 0.02 mM phospholipids, 34 mM sodium and 59 mM chloride. FaSSIF-V2 and FeSSIF-V2 are Fasted and Fed State Biorelevant Media, respectively. FaSSIF-V2 is prepared at pH 6.5 and contains 3 mM Taurocholate, 0.2 mM Phospholipids, 106 mM Sodium, 69 mM Chloride and 19 mM Maleic acid. FeSSIF-V2 is prepared at pH 5.8 and contains 10 mM Taurocholate, 2 mM Phospholipids, 0.8 mM Oleate, 5 mM Glycerol monoleate, 218 mM Sodium, 125 mM Chloride and 55 mM Maleic acid.

[2] = In vivo bioavailability of oral suspensions of prodrugs, plasma LC/MS; conditions: male Sprague-Dawley rats, single oral dose of suspension corresponding to 3 mg/kg of compound (I), plasma 0.12 h to 8 h
Description: The formulation vehicle used in the following suspension is a mixture of 1% (w/v) methylcellulose (400 cps), 0.1% (weight/volume) TWEEN® 80, 0.1% (w/v) Antifoam 1510 US in 25 mM phosphate buffer pH 3.0 in water. […]
The solution is homogenized by sonication during 1 minute, repeated 3 times.
Three male Sprague-Dawley rats were administered the respective suspensions of (II-A), (II-B) and (II-C), as described in paragraph 7.1 above, at a single oral dose corresponding to 3 mg/kg of compound of formula (I).
Plasma samples were collected 0.12 h, 0.25 h, 0.5 h, 1 h, 2 h, 4 h and 8 h following dosing.
Plasma concentrations of compound (I) and respective compounds (II-A), (II-B) and (II-C) were quantified by LC/MS (liquid chromatography/mass spectrometry).

[3] = phosphate buffer, pH 6.5, aqueous buffer, Phosphate buffer (50 mM), pH 6.5, RT
[4] = phosphate buffer, pH 4, aqueous buffer, Phosphate buffer (50 mM), pH 4.0, RT
[5] = water, pH 7, water, Water, pH 7.0, RT
[6] = FaSSIF-V2, 37 °C, pH 6.5, fassif, FaSSIF-V2, pH 6.5, 37° C.
[7] = FasSGF, 37 °C, pH 1.6, fassgf or other biorelevant, FasSGF, pH 1.6, 37° C.
[8] = FeSSIF-V2, 37 °C, pH 5.8, fessif, FeSSIF-V2, pH 5.8, 37° C.

Compound: C[C@H]1c2cccc(C(C)(C)O)c2C[C@H](COP(=O)(O)O)N1C(=O)Cc1c(Cl)ccc2c1c(Cl)nn2C [(II-Ax), [(1S,3R)-2-[2-(3,5-dichloro-1-methyl-indazol-4-yl)acetyl]-5-(1-hydroxy-1-methyl-ethyl)-1-methyl-3,4-dihydro-1H-isoquinolin-3-yl]methyl dihydrogen phosphate]
- Solubility Measurements (mean value) (24 h) ([1]; FaSSIF-V2, pH 6.5, 37° C.): >5000 µg/mL
- Solubility Measurements (mean value) (24 h) ([1]; FeSSIF-V2, pH 5.8, 37° C.): >5000 µg/mL
- solubility at 24 h [1, 3]: > 5000 µg/mL

Compound: C[C@H]1c2cccc(C(C)(C)O)c2C[C@H](COP(=O)(O)O)N1C(=O)Cc1c(Cl)ccc2c1c(Cl)nn2C [(II-A), [(1S,3R)-2-[2-(3,5-dichloro-1-methyl-indazol-4-yl)acetyl]-5-(1-hydroxy-1-methyl-ethyl)-1-methyl-3,4-dihydro-1H-isoquinolin-3-yl]methyl dihydrogen phosphate]
- Solubility Measurements (mean value) (24 h) ([1]; FaSSIF-V2, pH 6.5, 37° C.): ~1100 µg/mL
- solubility at 24 h [1, 4]: ~1000 µg/mL
- solubility at 24 h [1, 5]: ~1000 µg/mL
- cleavage of prodrug into compound of formula (I) in plasma [2]: completely cleaved

Compound: CC(C)C[C@H](N)C(=O)OC[C@H]1Cc2c(cccc2C(C)(C)O)[C@H](C)N1C(=O)Cc1c(Cl)ccc2c1c(Cl)nn2C [(II-C), [(1S,3R)-2-[2-(3,5-dichloro-1-methyl-indazol-4-yl)acetyl]-5-(1-hydroxy-1-methyl-ethyl)-1-methyl-3,4-dihydro-1H-isoquinolin-3-yl]methyl (2S)-2-amino-4-methyl-pentanoate]
- cleavage of prodrug into compound of formula (I) in plasma [2]: completely cleaved

Compound: CC(C)[C@H](N)C(=O)OC[C@H]1Cc2c(cccc2C(C)(C)O)[C@H](C)N1C(=O)Cc1c(Cl)ccc2c1c(Cl)nn2C [(II-B), [(1S,3R)-2-[2-(3,5-dichloro-1-methyl-indazol-4-yl)acetyl]-5-(1-hydroxy-1-methyl-ethyl)-1-methyl-3,4-dihydro-1H-isoquinolin-3-yl]methyl (2S)-2-amino-3-methyl-butanoate]
- solubility at 24 h [1, 6]: ~30 µg/mL (≈ 52.1 µM)
- solubility at 24 h [1, 7]: ~4800 µg/mL (≈ 8340 µM)
- solubility at 24 h [1, 8]: ~900 µg/mL (≈ 1560 µM)
- solubility at 24 h [1, 4]: ~850 µg/mL (≈ 1480 µM)
- solubility at 24 h [1, 3]: ~70 µg/mL (≈ 122 µM)
- solubility at 24 h [1, 5]: ~40 µg/mL (≈ 69.5 µM)
- cleavage of prodrug into compound of formula (I) in plasma [2]: partially cleaved

Compound: C[C@H]1c2cccc(C(C)(C)O)c2C[C@H](CO)N1C(=O)Cc1c(Cl)ccc2c1c(Cl)nn2C [(Ia), 2-(3,5-dichloro-1-methyl-indazol-4-yl)-1-[(1S,3R)-3-(hydroxymethyl)-5-(1-hydroxy-1-methyl-ethyl)-1-methyl-3,4-dihydro-1H-isoquinolin-2-yl]ethanone]
- solubility at 24 h [1, 6]: ~1.5 µg/mL (≈ 3.15 µM)
- solubility at 24 h [1, 7]: < 1 µg/mL
- solubility at 24 h [1, 8]: ~4 µg/mL (≈ 8.4 µM)
- solubility at 24 h [1, 4]: < 1 µg/mL
- solubility at 24 h [1, 3]: < 1 µg/mL
- solubility at 24 h [1, 5]: < 1 µg/mL
